Experimental data taken from patent publication US10222368B2 (priority 2012, dated 2019).

Experiments:
mu opiate receptor (MOR) = biological target: T1, mu opiate receptor (MOR) (Rattus norvegicus, UniProt P33535); test: MOR agonist activity using [35S]GTPγS binding assay in striatal membranes; format: biochemical; details: for MOR agonist activity, [35S]GTPγS binding, FLNA-binding compound as agonist at 0.1 μM: 0.1 μM compound; for MOR agonist activity, [35S]GTPγS binding, FLNA-binding compound as agonist at 0.1 μM / MOR agonist activity, [35S]GTPγS binding, 1 μM + BFNA / MOR agonist activity, [35S]GTPγS binding, FLNA-binding compound as agonist at 1 μM: striatal membranes; for MOR agonist activity, [35S]GTPγS binding, FLNA-binding compound as agonist at 0.1 μM / MOR agonist activity, [35S]GTPγS binding, FLNA-binding compound as agonist at 1 μM: Series C-2; for MOR agonist activity, [35S]GTPγS binding, 1 μM + BFNA: 1 μM compound + 1 μM β-FNA (MOR antagonist); for MOR agonist activity, [35S]GTPγS binding, FLNA-binding compound as agonist at 1 μM: 1 μM compound; for MOR agonist activity ([35S]GTPγS binding to Gαo), preliminary study: average of two runs
T1 construct: from tissue; host or cells: striatal tissue (membrane preparation)
T1 sequence (P33535 whole entry): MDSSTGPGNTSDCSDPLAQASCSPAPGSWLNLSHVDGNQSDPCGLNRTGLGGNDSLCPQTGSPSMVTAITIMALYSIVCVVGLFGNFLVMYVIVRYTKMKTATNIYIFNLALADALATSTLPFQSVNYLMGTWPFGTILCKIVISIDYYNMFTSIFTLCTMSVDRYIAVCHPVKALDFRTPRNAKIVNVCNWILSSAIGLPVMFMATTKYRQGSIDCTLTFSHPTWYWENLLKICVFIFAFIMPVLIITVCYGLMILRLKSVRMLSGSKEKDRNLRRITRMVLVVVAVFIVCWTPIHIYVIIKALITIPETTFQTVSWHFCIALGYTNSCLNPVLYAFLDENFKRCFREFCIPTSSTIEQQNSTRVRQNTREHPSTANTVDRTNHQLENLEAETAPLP
Method: To assess the mu opiate receptor (MOR) agonist activity of positive compounds from the FLNA screening, compounds were tested in a [^35S]GTPγS binding assay using striatal membranes. […] This assay measures a functional consequence of receptor occupancy at one of the earliest receptor-mediated events. The assay permits for traditional pharmacological parameters of potency, efficacy and antagonist affinity, with the advantage that agonist measures are not subjected to amplification or other modulation that may occur when analyzing parameters further downstream of the receptor.
Thus, striatal tissue was homogenized in 10 volumes of ice cold 25 mM HEPES buffer, pH 7.4, which contained 1 mM EGTA, 100 mM sucrose, 50 μg/ml leupeptin, 0.04 mM PMSF, 2 μg/ml soybean trypsin inhibitor and 0.2% 2-mercaptoethanol. The homogenates were centrifuged at 800×g for 5 minutes and the supernatants were centrifuged at 49,000×g for 20 minutes.
The resultant striatal membrane preparation (200 μg) was admixed and maintained (incubated) at 30° C. for 5 minutes in reaction buffer as above that additionally contained 1 mM MgCl2 and 0.5 nM [^35S]GTPγS (0.1 μCi/assay, PerkinElmer Life and Analytical Sciences) in a total volume of 250 μl and continued for 5 minutes in the absence or presence of 0.1-10 μM of an assayed compound of interest. The reaction was terminated by dilution with 750 μl of ice-cold reaction buffer that contained 20 mM MgCl2 and 1 mM EGTA and immediate centrifugation at 16,000×g for 5 minutes.
Normal rabbit serum (1 μl) was added to 1 ml of lysate and incubated at 25° C. for 30 minutes. Nonspecific immune complexes were removed by incubation with 25 μl of protein A/G-conjugated agarose beads at 25° C. for 30 minutes followed by centrifugation at 5,000×g at 4° C. for 5 minutes. The supernatant was divided and separately incubated at 25° C. for 30 minutes with antibodies raised against Gαo proteins (1:1,000 dilutions).
The immunocomplexes so formed were collected by incubation at 25° C. for 30 minutes with 40 μl of agarose-conjugated protein A/G beads and centrifugation at 5,000×g at 4° C. for 5 minutes. The pellet was washed and suspended in buffer containing 50 mM Tris-HCl, pH 8.0, and 1% NP-40. The radioactivity in the suspension was determined by liquid scintillation spectrometry.

α7nAChR-FLNA association = biological target: T2, α7nAChR-FLNA association (Rattus norvegicus, UniProt A0A8I5ZV49); test: Rat frontal cortical synaptosomes treated with Aβ42, anti-FLNA immunoprecipitation / Western blot; format: cell-based
T2 construct: from tissue; host or cells: rat frontal cortical synaptosomes
T2 sequence (A0A8I5ZV49 1-2647): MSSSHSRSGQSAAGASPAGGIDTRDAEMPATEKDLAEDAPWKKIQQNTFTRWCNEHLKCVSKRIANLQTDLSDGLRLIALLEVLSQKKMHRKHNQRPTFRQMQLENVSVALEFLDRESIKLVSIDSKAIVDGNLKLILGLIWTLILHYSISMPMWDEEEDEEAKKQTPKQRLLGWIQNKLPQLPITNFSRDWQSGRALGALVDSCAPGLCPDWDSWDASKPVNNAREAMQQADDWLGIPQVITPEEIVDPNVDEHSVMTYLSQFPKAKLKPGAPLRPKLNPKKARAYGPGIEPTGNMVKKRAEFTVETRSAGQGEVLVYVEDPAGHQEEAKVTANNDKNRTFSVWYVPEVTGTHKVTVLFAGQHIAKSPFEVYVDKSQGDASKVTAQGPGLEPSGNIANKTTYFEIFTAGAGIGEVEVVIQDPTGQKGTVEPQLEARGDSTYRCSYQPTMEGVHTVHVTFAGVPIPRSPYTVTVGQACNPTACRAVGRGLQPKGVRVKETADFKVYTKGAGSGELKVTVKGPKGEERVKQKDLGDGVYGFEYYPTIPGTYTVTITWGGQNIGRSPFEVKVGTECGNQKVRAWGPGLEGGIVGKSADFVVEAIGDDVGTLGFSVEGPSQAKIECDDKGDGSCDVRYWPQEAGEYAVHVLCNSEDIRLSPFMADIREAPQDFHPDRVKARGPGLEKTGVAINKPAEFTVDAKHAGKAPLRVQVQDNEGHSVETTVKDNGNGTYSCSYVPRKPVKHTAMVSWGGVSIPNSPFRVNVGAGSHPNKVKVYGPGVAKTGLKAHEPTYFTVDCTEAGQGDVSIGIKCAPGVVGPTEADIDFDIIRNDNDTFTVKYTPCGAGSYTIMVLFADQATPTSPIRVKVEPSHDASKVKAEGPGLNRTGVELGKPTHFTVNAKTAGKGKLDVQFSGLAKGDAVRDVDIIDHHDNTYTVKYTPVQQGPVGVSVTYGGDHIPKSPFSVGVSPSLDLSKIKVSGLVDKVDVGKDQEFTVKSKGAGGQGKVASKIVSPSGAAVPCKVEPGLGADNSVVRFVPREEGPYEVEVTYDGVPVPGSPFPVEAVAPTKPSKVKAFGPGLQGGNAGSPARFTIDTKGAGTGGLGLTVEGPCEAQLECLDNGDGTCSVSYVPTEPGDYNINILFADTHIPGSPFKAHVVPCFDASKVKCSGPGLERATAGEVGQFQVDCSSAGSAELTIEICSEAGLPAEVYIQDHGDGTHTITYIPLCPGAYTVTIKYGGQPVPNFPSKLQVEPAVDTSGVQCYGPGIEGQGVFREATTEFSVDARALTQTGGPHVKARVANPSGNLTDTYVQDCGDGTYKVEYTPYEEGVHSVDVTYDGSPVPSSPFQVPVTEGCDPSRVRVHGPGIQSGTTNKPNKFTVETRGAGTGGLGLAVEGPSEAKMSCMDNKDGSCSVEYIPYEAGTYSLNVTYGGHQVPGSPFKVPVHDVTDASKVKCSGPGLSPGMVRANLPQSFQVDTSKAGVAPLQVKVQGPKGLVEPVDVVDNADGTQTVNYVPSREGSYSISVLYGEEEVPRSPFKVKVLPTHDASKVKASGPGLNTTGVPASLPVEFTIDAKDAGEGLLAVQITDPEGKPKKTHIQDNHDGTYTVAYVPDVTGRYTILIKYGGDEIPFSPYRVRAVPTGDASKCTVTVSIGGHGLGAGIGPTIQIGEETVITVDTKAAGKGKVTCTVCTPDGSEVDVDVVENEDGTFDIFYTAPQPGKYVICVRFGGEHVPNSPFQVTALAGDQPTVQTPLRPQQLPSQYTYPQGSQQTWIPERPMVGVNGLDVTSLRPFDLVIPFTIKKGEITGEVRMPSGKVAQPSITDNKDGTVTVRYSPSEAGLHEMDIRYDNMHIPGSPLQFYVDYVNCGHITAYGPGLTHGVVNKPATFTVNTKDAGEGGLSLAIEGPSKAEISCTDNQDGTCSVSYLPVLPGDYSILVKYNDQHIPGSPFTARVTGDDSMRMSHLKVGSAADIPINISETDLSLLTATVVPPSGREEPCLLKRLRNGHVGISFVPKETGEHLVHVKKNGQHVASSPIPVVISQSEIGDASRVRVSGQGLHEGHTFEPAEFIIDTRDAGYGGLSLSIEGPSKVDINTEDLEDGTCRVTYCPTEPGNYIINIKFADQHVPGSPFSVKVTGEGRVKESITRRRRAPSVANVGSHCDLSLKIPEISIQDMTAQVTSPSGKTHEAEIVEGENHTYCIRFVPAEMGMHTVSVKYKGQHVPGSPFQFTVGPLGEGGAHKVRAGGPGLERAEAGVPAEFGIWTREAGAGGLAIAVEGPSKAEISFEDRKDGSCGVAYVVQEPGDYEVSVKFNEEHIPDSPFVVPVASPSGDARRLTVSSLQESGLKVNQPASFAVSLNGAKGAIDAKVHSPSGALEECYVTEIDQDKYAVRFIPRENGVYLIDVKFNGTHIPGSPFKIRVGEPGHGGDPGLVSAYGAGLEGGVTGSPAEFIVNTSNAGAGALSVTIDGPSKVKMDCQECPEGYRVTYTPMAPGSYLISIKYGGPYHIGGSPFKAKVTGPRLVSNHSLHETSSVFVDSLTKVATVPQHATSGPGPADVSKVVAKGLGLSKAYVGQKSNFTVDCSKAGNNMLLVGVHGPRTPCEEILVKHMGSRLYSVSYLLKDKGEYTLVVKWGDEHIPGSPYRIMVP
Excerpt: The α7nAChR-FLNA complexes in the solubilized synaptosomes were immunoprecipitated with immobilized anti-FLNA and the α7nAChR and FLNA levels in the anti-FLNA immunoprecipitates determined by Western blotting (FIG. 14A) and quantified by densitometry for illustrative compounds (FIG. 14B). n=3. […] The letter designation “M” that accompanies many of the “C-series” compounds is omitted from FIG. 14, the remaining figures and most discussions of the figures and compounds hereinafter for ease in expression. Structural formulas of the compounds used in this and the other figures are provided hereinafter.
(§1) The complexes in the solubilized synaptosomes, and α7nAChR, TLR4 and FLNA levels in the anti-FLNA immunoprecipitates were determined by Western blotting (FIG. 15A) in which numerals outside of and to the left of the blots are as discussed before. Amounts present in the blots were quantified by densitometry (FIG. 15B). […] Structural formulas of the compounds used in this and the other figures are provided hereinafter.

[1] = biological target: FLNA pentapeptide VAKGL (SEQ ID NO: 1) (Homo sapiens, UniProt P21333); test: FITC-NLX-based FLNA screening assay; format: binding; details: for inhibition at 0.0001 µM: 0.1 nM compound; for inhibition at 0.0001 µM / inhibition at 0.001 µM / inhibition at 0.01 µM / inhibition at 0.1 µM / inhibition at 1 µM: 100 nM frozen-stored FITC-NLX, average of two runs, read-out: Percent inhibition of FITC-NLX binding, preliminary study; for inhibition at 0.001 µM: 1 nM compound; for inhibition at 0.01 µM: 10 nM compound; for inhibition at 0.1 µM: 100 nM compound; for inhibition at 1 µM: 1 μM compound
KAPPA opioid receptor = KAPPA opioid receptor (Homo sapiens, UniProt P41145); details: cited from earlier work
KAPPA opioid receptor, sequence (P41145 whole entry): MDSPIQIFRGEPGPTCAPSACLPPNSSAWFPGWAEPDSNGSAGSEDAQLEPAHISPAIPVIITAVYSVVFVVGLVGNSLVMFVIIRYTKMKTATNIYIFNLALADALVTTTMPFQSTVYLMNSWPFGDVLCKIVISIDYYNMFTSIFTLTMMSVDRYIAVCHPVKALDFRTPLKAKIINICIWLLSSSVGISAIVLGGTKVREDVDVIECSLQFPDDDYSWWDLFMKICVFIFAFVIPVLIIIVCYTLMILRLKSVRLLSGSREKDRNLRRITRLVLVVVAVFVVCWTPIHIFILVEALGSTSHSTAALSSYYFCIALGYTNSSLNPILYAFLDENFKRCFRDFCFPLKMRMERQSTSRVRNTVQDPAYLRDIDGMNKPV

TLR4/FLNA = biological target: T3, TLR4/FLNA (Rattus norvegicus, UniProt A0A8I5ZV49); test: Rat frontal cortical synaptosomes treated with Aβ42, anti-FLNA immunoprecipitation / Western blot; format: cell-based; details: 1 or 10 nM compound, simultaneously or 10 min prior to 0.1 μM Aβ42; Dunnett's test
T3 construct: from tissue; host or cells: rat frontal cortical synaptosomes
T3 sequence (A0A8I5ZV49 1-2647): as the sequence (A0A8I5ZV49 1-2647) above
Method: as §1

[2] = biological target: T4, human FLNA-α7nAChR complex (Homo sapiens, UniProt P21333); test: Supplemental ELISA for FLNA-α7nAChR complex (Example 8: specificity, accuracy, precision, linearity, detection limit)
T4 construct: To determine the levels of FLNA-α7nAChR, FLNA-TLR4 and α7nAChR-Aβ42 complexes in the lymphocytes; endogenous in cells; host or cells: lymphocytes from venous blood of AD patients and control subjects (ex vivo)
Method: The following ELISA method activities were carried out to quantify FLNA-α7nAChR complex: specificity; accuracy; precision/repeatability; linearity and range; and, detection limit.
To assure ELISA assay uniquely identifies human FLNA-α7nAChR complex, the cross reactivity to human FLNA-α7nAChR complex, unrelated human proteins human leptin and human chorionic gonadotropin (hLeptin and hCG) were added to the lymphocyte lysate preparations and the ELISA assay performed.
To assure the ELISA assay returns a value that is representative of the “true” value, a range of concentrations of recombinant human leptin was spiked into lysate sample with FLNA-α7nAChR complex. Recovery percent concentrations were measured and accuracy calculated.
To assure that three measurements of a single lysate sample (e.g., sample AD#63) made in the same assay provide the same result, three samples were measured using the ELISA assay, three times on the same day using the same methods (repeatability). Within-day RSD was calculated.
To assure that the response is linear over the range of expected sample values, OD 450 of different concentrations of human FLNA-α7nAChR complex were detected using the ELISA assay. […]

[3] = 0.1 or 1 nM compound, simultaneously with or 10 min prior to Aβ42

Compound: CN1CCC2(CC1)NCC(=O)N2Cc1ccccc1 [Compound C0105M]
- MOR agonist activity, [35S]GTPγS binding, FLNA-binding compound as agonist at 0.1 μM (mu opiate receptor (MOR)): 198.1%
- MOR agonist activity, [35S]GTPγS binding, 1 μM + BFNA (mu opiate receptor (MOR)): 73.1%
- MOR agonist activity, [35S]GTPγS binding, FLNA-binding compound as agonist at 1 μM (mu opiate receptor (MOR)): 220.3%
- Effect on Aβ42-induced α7nAChR-FLNA association (in words) (α7nAChR-FLNA association; [3]): reduce α7nAChR-FLNA association

Compound: C=CCN1CCC2(CC1)OCCN2S(=O)(=O)c1ccc(C)cc1 [Compound 10]
- MOR agonist activity ([35S]GTPγS binding to Gαo), preliminary study (mu opiate receptor (MOR); 0.1 μM compound as agonist): 163.1%
- MOR agonist activity ([35S]GTPγS binding to Gαo), preliminary study (mu opiate receptor (MOR); 1 μM + βNFA): 60.4%
- MOR agonist activity ([35S]GTPγS binding to Gαo), preliminary study (mu opiate receptor (MOR); 1 μM compound as agonist): 191.8%
- inhibition at 0.0001 µM [1]: 27.5%
- inhibition at 0.001 µM [1]: 27.3%
- inhibition at 0.01 µM [1]: 26.6%
- inhibition at 0.1 µM [1]: 27.3%
- inhibition at 1 µM [1]: 34.5%

Compound: Oc1ccc2c3c1O[C@H]1c4[nH]c5c(c4C[C@@]4(O)C(C2)N(CC2CC2)CC[C@]314)C[C@@]1(O)[C@H]2Cc3ccc(O)c4c3[C@@]1(CCN2CC1CC1)[C@H]5O4 [Binaltrophimine]
- Opioid receptor activity and relative potency, KAPPA (KAPPA opioid receptor): − −

Compound: O=C1CNC2(CCN(CC3CC3)CC2)N1Cc1ccccc1 [Compound C0124M]
- MOR agonist activity, [35S]GTPγS binding, FLNA-binding compound as agonist at 0.1 μM (mu opiate receptor (MOR)): 252.0%
- MOR agonist activity, [35S]GTPγS binding, 1 μM + BFNA (mu opiate receptor (MOR)): 61.4%
- MOR agonist activity, [35S]GTPγS binding, FLNA-binding compound as agonist at 1 μM (mu opiate receptor (MOR)): 305.1%
- TLR4/FLNA ratio versus Aβ42 alone (in words) (TLR4/FLNA): statistically different from Aβ42 alone
- Effect on Aβ42-induced α7nAChR-FLNA association (in words) (α7nAChR-FLNA association; 1 or 10 nM compound, simultaneously or 10 min prior to 0.1 μM Aβ42): reduce α7nAChR-FLNA association

Compound: Nalbuphine [reference compound]
- Binding to the FLNA pentapeptide of SEQ ID NO: 1 (in words) [1]: bind well

Compound: CC1CCC(C(C)C)C(OCC(O)CN2CCCc3ccccc32)C1 (stereo not shown) [Compound A0068]
- Effect on Aβ42-induced α7nAChR-FLNA association (in words) (α7nAChR-FLNA association; [3]): reduce α7nAChR-FLNA association

Compound: O=C1CNC2(CCNCC2)N1Cc1ccccc1 [Compound C0114M]
- MOR agonist activity, [35S]GTPγS binding, FLNA-binding compound as agonist at 0.1 μM (mu opiate receptor (MOR)): 114.0%
- MOR agonist activity, [35S]GTPγS binding, 1 μM + BFNA (mu opiate receptor (MOR)): 35.9%
- MOR agonist activity, [35S]GTPγS binding, FLNA-binding compound as agonist at 1 μM (mu opiate receptor (MOR)): 144.3%
- Effect on Aβ42-induced α7nAChR-FLNA association (in words) (α7nAChR-FLNA association; [3]): reduce α7nAChR-FLNA association

Compound: hLeptin: unrelated human proteins human leptin and human chorionic gonadotropin (hLeptin and hCG); Human recombinant leptin
- Normalized OD, Average ([2]; 5 μg protein per well instead of lymphocyte lysate): 0.02
- % Cross reactivity ([2]; 5 μg protein per well, relative to 5 μg AD#63 lysate): 4.3%

Compound: C=CCN1CC[C@]23c4c5ccc(O)c4O[C@H]2C(=O)CC[C@]3(O)[C@H]1C5 [(+) NLX, (+)naloxone, reference compound]
- Effect on Aβ42-induced α7nAChR-FLNA association (in words) (α7nAChR-FLNA association; [3]): reduce α7nAChR-FLNA association

Compound: O=S(=O)(c1ccc(OC(F)(F)F)cc1)N1CCOC12CCN(CC1CC1)CC2 [Compound 4]
- MOR agonist activity ([35S]GTPγS binding to Gαo), preliminary study (mu opiate receptor (MOR); 0.1 μM compound as agonist): 133.9%
- MOR agonist activity ([35S]GTPγS binding to Gαo), preliminary study (mu opiate receptor (MOR); 1 μM + βNFA): 49.5%
- MOR agonist activity ([35S]GTPγS binding to Gαo), preliminary study (mu opiate receptor (MOR); 1 μM compound as agonist): 165.2%
- inhibition at 0.0001 µM [1]: 18.8%
- inhibition at 0.001 µM [1]: 21.3%
- inhibition at 0.01 µM [1]: 17.9%
- inhibition at 0.1 µM [1]: 28.8%
- inhibition at 1 µM [1]: 42.9%

Compound: Cc1ccc(S(=O)(=O)N2CCOC23CCN(CC2CCC2)CC3)cc1 [Compound 9]
- MOR agonist activity ([35S]GTPγS binding to Gαo), preliminary study (mu opiate receptor (MOR); 0.1 μM compound as agonist): 156.6%
- MOR agonist activity ([35S]GTPγS binding to Gαo), preliminary study (mu opiate receptor (MOR); 1 μM + βNFA): 56.6%
- MOR agonist activity ([35S]GTPγS binding to Gαo), preliminary study (mu opiate receptor (MOR); 1 μM compound as agonist): 197.2%
- inhibition at 0.0001 µM [1]: 22.5%
- inhibition at 0.001 µM [1]: 24.8%
- inhibition at 0.01 µM [1]: 27.7%
- inhibition at 0.1 µM [1]: 35.3%
- inhibition at 1 µM [1]: 49.6%

Compound: COc1ccc(OCC(O)CN2CCc3ccccc3C2)cc1 (stereo not shown) [Compound A0053]
- Effect on Aβ42-induced α7nAChR-FLNA association (in words) (α7nAChR-FLNA association; [3]): reduce α7nAChR-FLNA association

Compound: CC1CCC(C(C)C)C(OCC(O)CN2CCc3ccccc3C2)C1 (stereo not shown) [Compound A0040]
- Effect on Aβ42-induced α7nAChR-FLNA association (in words) (α7nAChR-FLNA association; [3]): reduce α7nAChR-FLNA association

Compound: CC1CCC(C(C)C)C(OCC(CN2CC(C)OC(C)C2)NCc2ccccc2)C1 (stereo not shown) [Compound A0033]
- Effect on Aβ42-induced α7nAChR-FLNA association (in words) (α7nAChR-FLNA association; [3]): reduce α7nAChR-FLNA association
